Laboratory results as given in patent US11046709B2, “Fused 1,4-diazepines as BET bromodomain inhibitors” (THE REGENTS OF THE UNIVERSITY OF MICHIGAN, priority 2017, dated 2021).

Columns and labels:
recombinant BRD4 BD1 = biological target: T1, recombinant BRD4 BD1 (Homo sapiens, UniProt O60885); experiment: Competitive fluorescence-polarization (FP) binding assay, BRD4 BD1; settings: competitive FP, Table 6; read-out: IC50 as determinined in FP assays BRD4 BD1
T1 construct: for recombinant BRD4 BD1 and BRD4 BD2 proteins
Procedure: Fluorescence Polarization (FP) competitive binding studies were carried out using a FAM labeled fluorescent probe, see, e.g., Cpd. No. 350 of US 2014/0256706, to determine binding affinities of representative Compounds of the Disclosure for recombinant BRD4 BD1 and BRD4 BD2 proteins. Equilibrium dissociation constants (Kd) values of the fluorescent probe to BRD4 BD1 and BD2 proteins were determined from protein saturation experiments by monitoring the total fluorescence polarization of mixtures composed with the fluorescent probe at a fixed concentration and proteins with increasing concentrations up to full saturation. Serial dilutions of testing proteins were mixed with the fluorescent probe to a final volume of 200 μl in the assay buffer (100 mM phosphate buffer, pH=6.5, 0.01% Triton X-100 (Sigma, 282103) being added right before assays). Final fluorescent probe concentration was 1.5 nM for both proteins. Plates were incubated at room temperature for 30 minutes with gentle shaking to assure equilibrium. FP values in millipolarization units (mP) were measured using the Infinite M-1000 plate reader (Tecan U.S., Research Triangle Park, N.C.) in Microfluor 1 96-well, black, round-bottom plates (Thermo Scientific, Waltham, Mass.) at an excitation wavelength of 485 nm and an emission wavelength of 530 nm. Kd values of the fluorescent probe, which were calculated by fitting the sigmoidal dose-dependent FP increases as a function of protein concentrations using Graphpad Prism 6.0 software (Graphpad Software, San Diego, Calif.), are 5.5 and 3.0 nM to BDR4 BD1 and 2, respectively.
The IC50 and Ki values of compounds were determined in a competitive binding experiment. See US 2014/0256706. Mixtures of 10 μl of the tested compounds in assay buffer with 40% Ethylene Glycol and 190 μl of preincubated protein/probe complex solution in the assay buffer (100 mM potassium phosphate, pH 6.5, 0.01% Triton X-100) were added into assay plates which were incubated at room temperature for 30 minutes with gentle shaking. Final concentrations of proteins were 10 and 6 nM in assays for BRD4 BD1 and BD2, respectively. Final probe concentration is 1.5 nM in both assays. Negative controls containing protein/probe complex only (equivalent to 0% inhibition), and positive controls containing only free probes (equivalent to 100% inhibition), were included in each assay plate. FP values were measured as described above. IC50 values were determined by nonlinear regression fitting of the competition curves. Instead of being calculated from IC50 values as described before. Ki values of competitive inhibitors were obtained directly by nonlinear regression fitting as well, based upon the Kd values of the probe to different proteins, and concentrations of the proteins and probes in the competitive assays (US 2014/0256706; Wang, FEBS Lett. 360:111 (1995); Zhang et al., Analytical Biochemistry, 331:138 (2004)).
Representative compounds in Table 5 were evaluated for their binding affinities to BRD4 BD1 and BD2 proteins using the Competitive Fluorescence-Polarization (FP) Assays described in Example 6, with the data included in Table 6.

recombinant BRD4 BD2 = biological target: T2, recombinant BRD4 BD2 (Homo sapiens, UniProt O60885); experiment: Competitive fluorescence-polarization (FP) binding assay, BRD4 BD2; settings: competitive FP, Table 6; read-out: IC50 as determinined in FP assays BRD4 BD2
T2 construct: for recombinant BRD4 BD1 and BRD4 BD2 proteins

MOLM-13 = experiment: Cell growth inhibition, 4-day proliferation assay, MOLM-13; format: cell-based; settings: Homo sapiens, MOLM-13, WST-8 assay, Table 7; read-out: Cell growth inhibition (IC50 (nM)) MOLM-13
MDA-MB-231 = experiment: Cell growth inhibition, 4-day proliferation assay, MDA-MB-231; format: cell-based; settings: Homo sapiens, MDA-MB-231; WST-8 assay, Table 7; read-out: Cell growth inhibition (IC50 (nM)) MDA-MB-231
Procedure, shortened: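 WST-8 colorimetric read-out (absorbance 450 nm after 1-2 h) after 4-day compound exposure of 3,000-10,000 cells/well at 37 °C; IC50 from variable-slope sigmoid fit of DMSO-normalized signal.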

[1] = Plasma exposure after oral gavage in mice, LC-MS/MS; format: in vivo; settings: mouse, plasma, mice, oral gavage 25 mg/kg; for concentration at 1 h: read-out: Plasma concentration (ng/mL) 1 h; for concentration at 3 h: read-out: Plasma concentration (ng/mL) 3 h; for concentration at 6 h: read-out: Plasma concentration (ng/mL) 6 h
Procedure: For a number of representative compounds in Table 5, their plasma exposures with oral administration in mice via oral gavage were determined by LC-MS/MS, with the data shown in Table 9.

Cc1nnc(C[C@@H]2N=C(c3ccc(Cl)cc3)c3c(sc(C#CC4CCN(C)CC4)c3C)-n3c(C)nnc32)o1 [Compound 175, (S)-2-((4-(4-chlorophenyl)-3,9-dimethyl-2-((1-methylpiperidin-4-yl)ethynyl)-6H-thieno[3,2-f][1,2,4]triazolo[4,3-a][1,4]diazepin-6-yl)methyl)-5-methyl-1,3,4-oxadiazole]
IC50 (recombinant BRD4 BD1): 31.8 nM
IC50 (recombinant BRD4 BD2): 93.2 nM
IC50 (MOLM-13): 5 nM
IC50 (MDA-MB-231): 3.96 nM
concentration at 1 h [1]: 413 ng/mL
concentration at 3 h [1]: 384 ng/mL
concentration at 6 h [1]: 68 ng/mL

Cc1nnc(C[C@@H]2N=C(c3ccc(Cl)cc3)c3c(sc(C#CC(C)(C)O)c3C)-n3c(C)nnc32)o1 [Compound 144, (S)-4-(4-(4-chlorophenyl)-3,9-dimethyl-6-((5-methyl-1,3,4-oxadiazol-2-yl)methyl)-6H-thieno[3,2-f][1,2,4]triazolo[4,3-a][1,4]diazepin-2-yl)-2-methylbut-3-yn-2-ol]
IC50 (recombinant BRD4 BD1): 21.8 nM
IC50 (recombinant BRD4 BD2): 26.4 nM
IC50 (MOLM-13): 36.4 nM
IC50 (MDA-MB-231): 288 nM
concentration at 1 h [1]: 4160 ng/mL
concentration at 3 h [1]: 7580 ng/mL
concentration at 6 h [1]: 1120 ng/mL

Cc1nnc(C[C@@H]2N=C(c3ccc(Cl)cc3)c3c(sc(C#CC4CC4)c3C)-n3c(C)nnc32)o1 [Compound 143, (S)-2-((4-(4-chlorophenyl)-2-(cyclopropylethynyl)-3,9-dimethyl-6H-thieno[3,2-f][1,2,4]triazolo[4,3-a][1,4]diazepin-6-yl)methyl)-5-methyl-1,3,4-oxadiazole]
IC50 (recombinant BRD4 BD1): 8.86 nM
IC50 (recombinant BRD4 BD2): 21.6 nM
IC50 (MOLM-13): 6.06 nM
IC50 (MDA-MB-231): 6.59 nM
concentration at 1 h [1]: 3170 ng/mL
concentration at 3 h [1]: 2700 ng/mL
concentration at 6 h [1]: 3670 ng/mL

Cc1c(C#Cc2ccccn2)sc2c1C(c1ccc(Cl)cc1)=N[C@@H](CC(=O)Nc1ccc(O)cc1)c1nnc(C)n1-2 [Compound 125, (S)-2-(4-(4-chlorophenyl)-3,9-dimethyl-2-(pyridin-2-ylethynyl)-6H-thieno[3,2-f][1,2,4]triazolo[4,3-a][1,4]diazepin-6-yl)-N-(4-hydroxyphenyl)acetamide]
IC50 (recombinant BRD4 BD1): 10.2 nM
IC50 (recombinant BRD4 BD2): 13.9 nM
IC50 (MOLM-13): 31 nM
IC50 (MDA-MB-231): 132 nM
concentration at 1 h [1]: 2520 ng/mL
concentration at 3 h [1]: 407 ng/mL
concentration at 6 h [1]: 83 ng/mL

Cc1c(C#Cc2ccccn2)sc2c1C(c1ccc(Cl)cc1)=N[C@@H](CC(N)=O)c1nnc(C)n1-2 [Compound 109, (S)-2-(4-(4-chlorophenyl)-3,9-dimethyl-2-(pyridin-2-ylethynyl)-6H-thieno[3,2-f][1,2,4]triazolo[4,3-a][1,4]diazepin-6-yl)acetamide]
IC50 (recombinant BRD4 BD1): 3.8 nM
IC50 (recombinant BRD4 BD2): 282 nM
IC50 (MOLM-13): 7.2 nM
IC50 (MDA-MB-231): 2.57 nM
concentration at 1 h [1]: 2170 ng/mL
concentration at 3 h [1]: 609 ng/mL
concentration at 6 h [1]: 184 ng/mL

CCNC(=O)C[C@@H]1N=C(c2ccc(Cl)cc2)c2c(sc(C#Cc3cccnc3)c2C)-n2c(C)nnc21 [Compound 114, (S)-2-(4-(4-chlorophenyl)-3,9-dimethyl-2-(pyridin-3-ylethynyl)-6H-thieno[3,2-f][1,2,4]triazolo[4,3-a][1,4]diazepin-6-yl)-N-ethylacetamide]
IC50 (recombinant BRD4 BD1): 8.2 nM
IC50 (recombinant BRD4 BD2): 4.7 nM
IC50 (MOLM-13): 13.8 nM
IC50 (MDA-MB-231): 39.4 nM

Cc1nnc(C[C@@H]2N=C(c3ccc(Cl)cc3)c3c(sc(C#CC4CCNCC4)c3C)-n3c(C)nnc32)o1 [Compound 174, (S)-2-((4-(4-chlorophenyl)-3,9-dimethyl-2-(piperidin-4-ylethynyl)-6H-thieno[3,2-f][1,2,4]triazolo[4,3-a][1,4]diazepin-6-yl)methyl)-5-methyl-1,3,4-oxadiazole]
IC50 (recombinant BRD4 BD1): 49.9 nM
IC50 (recombinant BRD4 BD2): 46 nM
IC50 (MOLM-13): 3.1 nM
IC50 (MDA-MB-231): 9.43 nM
concentration at 1 h [1]: 56 ng/mL
concentration at 3 h [1]: 12 ng/mL
concentration at 6 h [1]: 3 ng/mL

CCNC(=O)C[C@@H]1N=C(c2ccc(Cl)cc2)c2c(sc(C#Cc3ccccn3)c2C)-n2c(C)nnc21 [Compound 110, (S)-2-(4-(4-chlorophenyl)-3,9-dimethyl-2-(pyridin-2-ylethynyl)-6H-thieno[3,2-f][1,2,4]triazolo[4,3-a][1,4]diazepin-6-yl)-N-ethylacetamide]
IC50 (recombinant BRD4 BD1): 8.5 nM
IC50 (recombinant BRD4 BD2): 27.5 nM
IC50 (MOLM-13): 47.7 nM
IC50 (MDA-MB-231): 310 ± 100 nM
concentration at 1 h [1]: 1540 ng/mL
concentration at 3 h [1]: 1160 ng/mL
concentration at 6 h [1]: 123 ng/mL

Cc1c(C#Cc2ccccn2)sc2c1C(c1ccc(Cl)cc1)=N[C@@H](CC(=O)N1CCC(O)CC1)c1nnc(C)n1-2 [Compound 123, (S)-2-(4-(4-chlorophenyl)-3,9-dimethyl-2-(pyridin-2-ylethynyl)-6H-thieno[3,2-f][1,2,4]triazolo[4,3-a][1,4]diazepin-6-yl)-1-(4-hydroxypiperidin-1-yl)ethan-1-one]
IC50 (recombinant BRD4 BD1): 20.4 nM
IC50 (recombinant BRD4 BD2): 59.4 nM
IC50 (MOLM-13): 71.6 nM
IC50 (MDA-MB-231): 61.1 nM

Cc1c(C#Cc2cccnc2)sc2c1C(c1ccc(Cl)cc1)=N[C@@H](CC(=O)N1CCC(O)CC1)c1nnc(C)n1-2 [Compound 117, (S)-2-(4-(4-chlorophenyl)-3,9-dimethyl-2-(pyridin-3-ylethynyl)-6H-thieno[3,2-f][1,2,4]triazolo[4,3-a][1,4]diazepin-6-yl)-1-(4-hydroxypiperidin-1-yl)ethan-1-one]
IC50 (recombinant BRD4 BD1): 6.3 nM
IC50 (recombinant BRD4 BD2): 10.4 nM
IC50 (MOLM-13): 19.8 nM
IC50 (MDA-MB-231): 79.6 nM

Cc1c(C#Cc2ccc(N)nc2)sc2c1C(c1ccc(Cl)cc1)=N[C@@H](CC(N)=O)c1nnc(C)n1-2 [Compound 121, (S)-2-(2-((6-aminopyridin-3-yl)ethynyl)-4-(4-chlorophenyl)-3,9-dimethyl-6H-thieno[3,2-f][1,2,4]triazolo[4,3-a][1,4]diazepin-6-yl)acetamide]
IC50 (recombinant BRD4 BD1): 10.6 nM
IC50 (recombinant BRD4 BD2): 8.4 nM
IC50 (MOLM-13): 4.76 nM
IC50 (MDA-MB-231): 21.9 nM

Cc1c(C#Cc2ccccn2)sc2c1C(c1ccc(Cl)cc1)=N[C@@H](CC(=O)NC1CCN(C)CC1)c1nnc(C)n1-2 [Compound 130, (S)-2-(4-(4-chlorophenyl)-3,9-dimethyl-2-(pyridin-2-ylethynyl)-6H-thieno[3,2-f][1,2,4]triazolo[4,3-a][1,4]diazepin-6-yl)-N-(1-methylpiperidin-4-yl)acetamide]
IC50 (recombinant BRD4 BD1): 8.7 nM
IC50 (recombinant BRD4 BD2): 19 nM
IC50 (MOLM-13): 3.84 nM
IC50 (MDA-MB-231): 13 nM

Cc1c(C#Cc2ccccn2)sc2c1C(c1ccc(Cl)cc1)=N[C@@H](CC(=O)N1CC3(COC3)C1)c1nnc(C)n1-2 [Compound 124, (S)-2-(4-(4-chlorophenyl)-3,9-dimethyl-2-(pyridin-2-ylethynyl)-6H-thieno[3,2-f][1,2,4]triazolo[4,3-a][1,4]diazepin-6-yl)-1-(2-oxa-6-azaspiro[3.3]heptan-6-yl)ethan-1-one]
IC50 (recombinant BRD4 BD1): 10.9 nM
IC50 (recombinant BRD4 BD2): 62 nM
IC50 (MOLM-13): 57.4 nM
IC50 (MDA-MB-231): 86.3 nM

Cc1c(C#Cc2cccnc2)sc2c1C(c1ccc(Cl)cc1)=N[C@@H](CC(=O)O)c1nnc(C)n1-2 [Compound 112, (S)-2-(4-(4-chlorophenyl)-3,9-dimethyl-2-(pyridin-3-ylethynyl)-6H-thieno[3,2-f][1,2,4]triazolo[4,3-a][1,4]diazepin-6-yl)acetic acid]
IC50 (recombinant BRD4 BD1): 86.2 nM
IC50 (recombinant BRD4 BD2): 23 nM
IC50 (MOLM-13): 644 nM
IC50 (MDA-MB-231): 1860 nM
